# Measured values published in ChEMBL document CHEMBL1125278, “Novel cerebroprotective agents with central nervous system stimulating activity. 2. Synthesis and pharmacology of the 1-(acylamino)-7-hydroxyindan derivatives” (1991).
# How the values were obtained:
# Assay type in all cases: functional
# Mus musculus [1] = test: Time of recovery of righting reflux (RRT) in seconds was measured after iv administration of 0.625 mg/kg in mice for the promotional effect on recovery from coma.
# Mus musculus [2] = test: Time of recovery of righting reflux (RRT) in seconds was measured after iv administration of 1.25 mg/kg in mice for the promotional effect on recovery from coma.
# Mus musculus [3] = test: Time of recovery of righting reflux (RRT) in seconds was measured after iv administration of 2.5 mg/kg in mice for the promotional effect on recovery from coma.
# Mus musculus [4] = test: Antihypoxic effect by the ratio of survival time (SVT) of test mice to that of control group at a dose of 0.3 mg/kg administered intraperitoneally.; conditions: route intraperitoneal
# Mus musculus [5] = test: Antihypoxic effect by the ratio of survival time (SVT) of test mice to that of control group at a dose of 1 mg/kg administered intraperitoneally.; conditions: route intraperitoneal
# Mus musculus [6] = test: Antihypoxic effect tested by the ratio of survival time (SVT) of test mice to that of control group, dosed intraperitoneally at 30 mg/kg; conditions: route intraperitoneal
# Mus musculus [7] = test: Antihypoxic effect by the ratio of survival time (SVT) of test mice to that of control group at a dose of 3 mg/kg administered intraperitoneally.; conditions: route intraperitoneal
# Mus musculus [8] = test: Time of recovery of spontaneous movement (SMT) in seconds was measured after iv administration of 0.625 mg/kg in mice for the promotional effect on recovery from coma.
# Mus musculus [9] = test: Time of recovery of spontaneous movement (SMT) in seconds was measured after iv administration of 1.25 mg/kg in mice for the promotional effect on recovery from coma.
# Mus musculus [10] = test: Time of recovery of spontaneous movement (SMT) in seconds was measured after iv administration of 2.5 mg/kg in mice for the promotional effect on recovery from coma.
# Mus musculus [11] = test: Compound was tested for the anesthetic effect and the sleeping time (ST) was recorded at a dose of 0.3 mg/kg administered intraperitoneally.; conditions: route intraperitoneal
# Mus musculus [12] = test: Compound was tested for the anesthetic effect and the sleeping time (ST) was recorded at a dose of 1 mg/kg administered intraperitoneally.; conditions: route intraperitoneal
# Mus musculus [13] = test: Compound was tested for the anesthetic effect and the sleeping time (ST) was recorded at a dose of 3 mg/kg administered intraperitoneally.; conditions: route intraperitoneal
structure (smiles),measurement,setting,value
NC(=O)[C@@H]1CCCN1C(=O)[C@H](Cc1c[nH]cn1)NC(=O)[C@@H]1CCC(=O)N1 [PROTIRELIN],RRT,Mus musculus [1],100.1 s
same,RRT,Mus musculus [2],34.1 s
same,RRT,Mus musculus [3],40.8 s
same,SVT,Mus musculus [4],83.8%
same,SVT,Mus musculus [5],47.1%
same,SVT,Mus musculus [6],43.4%
same,SVT,Mus musculus [7],43.4%
same,SMT,Mus musculus [8],118.2 s
same,SMT,Mus musculus [9],48.2 s
same,SMT,Mus musculus [10],40.9 s
same,ST,Mus musculus [11],83.1 s
same,ST,Mus musculus [12],70.7 s
same,ST,Mus musculus [13],73.2 s
